{"source": "patent US20140073643A1", "about": "“TREATMENT OF JAK2-MEDIATED CONDITIONS” (YM BIOSCIENCES AUSTRALIA PTY LTD, priority 2010, published 2014)", "key": {"[1]": {"test_system": "patients with high- or intermediate-risk primary myelofibrosis (PMF) and post-PV or post-essential thrombocythemia (ET) myelofibrosis", "assay": "Phase I/II clinical trial of CYT387: anemia response / hemoglobin", "type": "in vivo, human", "from_the_text": "By “anemia response” is meant an increase in the patient's hemoglobin level or a patient who was transfusion dependent becoming transfusion independent. Desirably, a minimum increase in hemoglobin of 2.0 g/dL lasting a minimum of 8 weeks is achieved, which is the level of improvement specified in the International Working Group (IWG) consensus criteria. However, smaller, but still medically significant, increases in hemoglobin are also considered to be within the term “anemia response”.\nA clinical trial was designed to assess the safety, tolerability, and pharmacokinetic behavior of CYT387 in a Phase I dose-escalation study in patients with high- or intermediate-risk primary myelofibrosis (PMF) and post-PV or post-essential thrombocythemia (ET) myelofibrosis. The secondary objective was evaluation of CYT387 's benefit to myelofibrosis patients. […] For patients achieving less than a complete remission after 3 cycles of treatment, escalation was permitted to the highest tolerated dose in the absence of disease progression or unacceptable toxicity. Once dose-limiting toxicity (DLT) was identified, a dose-confirmation cohort initiated treatment at the maximum tolerated dose (MTD) and/or a lower clinically effective dose.\n(§1) Results were obtained for 36 subjects enrolled in the 120 patient Phase I/II trial for which recruitment is ongoing. Of these, 18 patients were from the dose escalation phase, and 18 patients were from the subsequent dose confirmation phase. Twenty subjects (56%) were red cell transfusion-dependent at study entry. Prior treatment included other JAK inhibitors in ten patients (nine and one subjects with INCB018424 and TG101348, respectively) and pomalidomide in nine patients. The median treatment duration at publication was 15 weeks (range 4-38).\nAnemia Response: The total anemia response rate was 63%. Of 22 subjects who were evaluable for anemia response (baseline Hgb<10 g/dL or red cell transfusion-dependent), nine subjects (41%) had achieved “Clinical Improvement (CI)” as per the International Working Group for Myeloproliferative Neoplasms Research and Treatment (IWG-MRT) criteria, including two of four subjects who were previously treated with INCB018424. An additional five subjects experienced a >50% reduction in transfusion requirement.\nThere is also a line for “anemia evaluable” patients which are patients who are considered anemic at baseline by IWG criteria. That is they have a baseline hgb of <10 g/dL or are transfusion dependent at baseline."}, "[2]": {"test_system": "patients with high- or intermediate-risk primary myelofibrosis (PMF) and post-PV or post-essential thrombocythemia (ET) myelofibrosis", "assay": "Phase I/II clinical trial of CYT387: spleen response", "type": "in vivo, human", "from_the_text": "By “spleen response” is meant a reduction in the size of the patient's spleen as assessed by either palpation of a previously palpable spleen during physical exam or by diagnostic imaging. The IWG consensus criteria specifies that there be either a minimum 50% reduction in palpable splenomegaly (spleen enlargement) of a spleen that is at least 10 cm at baseline (prior to treatment) or of a spleen that is palpable at more than 5 cm at baseline becomes not palpable. However, smaller reductions are also considered to be within the term “spleen response”.\n(§2) A clinical trial was designed to assess the safety, tolerability, and pharmacokinetic behavior of CYT387 in a Phase I dose-escalation study in patients with high- or intermediate-risk primary myelofibrosis (PMF) and post-PV or post-essential thrombocythemia (ET) myelofibrosis. The secondary objective was evaluation of CYT387 's benefit to myelofibrosis patients. CYT387 was administered orally (in a capsule without excipients) once daily in 28-day cycles. For patients achieving less than a complete remission after 3 cycles of treatment, escalation was permitted to the highest tolerated dose in the absence of disease progression or unacceptable toxicity. Once dose-limiting toxicity (DLT) was identified, a dose-confirmation cohort initiated treatment at the maximum tolerated dose (MTD) and/or a lower clinically effective dose.\nas §1\nSpleen Size Reduction: Twenty nine (97%) of the 30 evaluable subjects who had splenomegaly at baseline (median 20 cm; range 10-32 cm) had some degree of spleen size reduction (median 9 cm; range 2-18 cm). Eleven (37%) patients have achieved a minimum 50% decrease in palpable spleen size, thus qualifying them for a CI per IWG-MRT criteria, including three out of eight subjects (38%) who were previously treated with INCB018424."}, "[3]": {"test_system": "patients with high- or intermediate-risk primary myelofibrosis (PMF) and post-PV or post-essential thrombocythemia (ET) myelofibrosis", "assay": "Phase I/II clinical trial of CYT387: constitutional symptoms", "type": "in vivo, human", "details": "at last follow up", "method": "as §2, §1\nConstitutional symptoms: The proportion of patients with the following symptoms at baseline was as follows: fatigue (97%), pruritus (22%), night sweats (38%), cough (13%), bone pain (28%), and fever (16%). At last follow up, improvement (complete resolution; CR) in these symptoms was reported by 68% (16% CR), 86% (57% CR), 83% (75% CR), 75% (50% CR), 78% (44% CR), and 100% (100% CR), respectively."}, "[4]": {"test_system": "patients with high- or intermediate-risk primary myelofibrosis (PMF) and post-PV or post-essential thrombocythemia (ET) myelofibrosis", "assay": "Phase I/II clinical trial of CYT387: toxicity", "type": "in vivo", "method": "as §2, §1\nTo date, 36 subjects were evaluable for toxicity. At the highest dose level (400 mg/day), two of six subjects experienced dose limiting toxicity (DLT) (one each with asymptomatic grade three hyperlipasemia and grade three headache that were reversible upon holding drug); consequently, the maximum tolerated dose (MTD) was declared at 300 mg/day. In the dose-confirmation phase, subjects were started at one of two dose levels that were deemed clinically effective: 150 mg/day (n=15) and 300 mg/day (n=3). Thirty-five subjects were on active therapy at publication of the abstract: 100 mg/day (n=2), 150 mg/day (n=20), 300 mg/day (n=10), and 400 mg/day (n=3)."}, "[5]": {"details": "administered once a day; cited from earlier work"}, "[6]": {"details": "Previous Treatment with IMids (Pomalidomide, Thalidomide, Revlimid)"}, "[7]": {"details": "Previous Treatment with INCB018424"}, "[8]": {"details": "Previous Treatment with TG-101348"}, "[9]": {"details": "Previous Treatment with Unspecified JAK2"}, "[10]": {"details": "Previous Treatment with any JAK2"}, "[11]": {"details": "interim response by diagnosis: PET"}, "[12]": {"details": "interim response by diagnosis: PMF"}, "[13]": {"details": "interim response by diagnosis: PPV"}, "[14]": {"details": "30 evaluable subjects with splenomegaly at baseline"}}, "note": "Marks after values point to notes of the source that are not given here.", "data": [{"smiles": "N#CCNC(=O)c1ccc(-c2ccnc(Nc3ccc(N4CCOCC4)cc3)n2)cc1", "note": "[CYT387, N-(cyanomethyl)-4-[2-[[4-(4-morpholinyl)phenyl]amino]-4-pyrimidinyl]-benzamide]", "values": [{"measurement": "effect on hemoglobin in transfusion dependent patients who respond (Tx responders)", "setting": "[1]; FIG. 2, no longer receiving RBC transfusions", "result": "modest initial increase in hemoglobin that is sustained"}, {"measurement": "Anemia response: % responders", "setting": "[1]; Initial Dose 150 BID", "result": 33, "unit": "%*"}, {"measurement": "Anemia response: Responders (number)", "setting": "[1]; Initial Dose 150 BID, 21 evaluable pts", "result": 7}, {"measurement": "Anemia response: % responders", "setting": "[1]; Initial Dose 150 QD", "result": 50, "unit": "%"}, {"measurement": "Anemia response: Responders (number)", "setting": "[1]; Initial Dose 150 QD, 32 evaluable pts", "result": 16}, {"measurement": "Anemia response: % responders", "setting": "[1]; Initial Dose 300 QD", "result": 54, "unit": "%"}, {"measurement": "Anemia response: Responders (number)", "setting": "[1]; Initial Dose 300 QD, 39 evaluable pts", "result": 21}, {"measurement": "Responders, Anemia", "setting": "[1]; [6]", "result": "Anemia: 9/14 = 64.3%"}, {"measurement": "Responders, Anemia", "setting": "[1]; [7]", "result": "Anemia: 4/7 = 57.1%"}, {"measurement": "Responders, Anemia", "setting": "[1]; [8]", "result": "Anemia: 3/4 = 75%"}, {"measurement": "Responders, Anemia", "setting": "[1]; [9]", "result": "Anemia: 2/3 = 66.7%"}, {"measurement": "Responders, Anemia", "setting": "[1]; [10]", "result": "Anemia: 9/14 = 64.3%"}, {"measurement": "effect on hemoglobin levels", "setting": "[1]; first 60 patients, FIG. 1 and 2", "result": "clear and sustained improvement in hemoglobin levels"}, {"measurement": "Anemia Response/Evaluable", "setting": "[1]; [11]", "result": "10/18 (55.6%)"}, {"measurement": "Anemia Response/Evaluable", "setting": "[1]; [12]", "result": "30/66 (45.5%)"}, {"measurement": "Anemia Response/Evaluable", "setting": "[1]; [13]", "result": "6/14 (42.9%)"}, {"measurement": "subjects achieving Clinical Improvement (CI) in anemia per IWG-MRT criteria", "setting": "[1]; nine of 22 evaluable subjects (baseline Hgb<10 g/dL or red cell transfusion-dependent)", "result": 41, "unit": "%"}, {"measurement": "additional subjects with >50% reduction in transfusion requirement", "setting": "[1]; of 22 evaluable subjects", "result": "five"}, {"measurement": "total anemia response rate", "setting": "[1]; oral once daily, 28-day cycles, 22 subjects evaluable for anemia response", "result": 63, "unit": "%"}, {"measurement": "subjects achieving anemia CI per IWG-MRT among those previously treated with INCB018424", "setting": "[1]; previously treated with INCB018424", "result": "two of four"}, {"measurement": "subjects with some degree of spleen size reduction", "setting": "[2]; 29 of 30 evaluable subjects with splenomegaly at baseline (median 20 cm)", "result": 97, "unit": "%"}, {"measurement": "spleen size reduction, median", "setting": "[2]; [14]", "result": 9, "unit": "cm"}, {"measurement": "spleen size reduction, range", "setting": "[2]; [14]", "result": "2-18 cm"}, {"measurement": "Responders, Spleen", "setting": "[2]; [6]", "result": "Spleen: 6/11 = 54.5%"}, {"measurement": "Responders, Spleen", "setting": "[2]; [7]", "result": "Spleen: 3/10 = 30%"}, {"measurement": "Responders, Spleen", "setting": "[2]; [8]", "result": "Spleen: 1/4 = 25%"}, {"measurement": "Responders, Spleen", "setting": "[2]; [9]", "result": "Spleen: 1/3 = 33.3%"}, {"measurement": "Responders, Spleen", "setting": "[2]; [10]", "result": "Spleen: 5/17 = 29.4%"}, {"measurement": "patients with minimum 50% decrease in palpable spleen size (CI per IWG-MRT)", "setting": "[2]; eleven of 30 evaluable", "result": 37, "unit": "%"}, {"measurement": "Spleen Response/Evaluable", "setting": "[2]; [11]", "result": "7/19 (36.8%)"}, {"measurement": "Spleen Response/Evaluable", "setting": "[2]; [12]", "result": "22/82 (26.8%)"}, {"measurement": "Spleen Response/Evaluable", "setting": "[2]; [13]", "result": "11/33 (33.3%)"}, {"measurement": "patients with minimum 50% decrease in palpable spleen size (CI per IWG-MRT), previously treated with INCB018424", "setting": "[2]; three out of eight subjects previously treated with INCB018424", "result": 38, "unit": "%"}, {"measurement": "complete resolution (CR) of bone pain", "setting": "[3]", "result": 44, "unit": "%"}, {"measurement": "complete resolution (CR) of cough", "setting": "[3]", "result": 50, "unit": "%"}, {"measurement": "complete resolution (CR) of fatigue", "setting": "[3]", "result": 16, "unit": "%"}, {"measurement": "complete resolution (CR) of fever", "setting": "[3]", "result": 100, "unit": "%"}, {"measurement": "complete resolution (CR) of night sweats", "setting": "[3]", "result": 75, "unit": "%"}, {"measurement": "complete resolution (CR) of pruritus", "setting": "[3]", "result": 57, "unit": "%"}, {"measurement": "improvement in bone pain", "setting": "[3]", "result": 78, "unit": "%"}, {"measurement": "improvement in cough", "setting": "[3]", "result": 75, "unit": "%"}, {"measurement": "improvement in fever", "setting": "[3]", "result": 100, "unit": "%"}, {"measurement": "improvement in night sweats", "setting": "[3]", "result": 83, "unit": "%"}, {"measurement": "improvement in pruritus", "setting": "[3]", "result": 86, "unit": "%"}, {"measurement": "improvement in fatigue", "setting": "[3]; patients with symptom at baseline", "result": 68, "unit": "%"}, {"measurement": "Grade 3/4 thrombocytopenia", "setting": "[4]; human, in vivo", "result": 22, "unit": "%"}, {"measurement": "Treatment-emergent grade 3/4 neutropenia", "setting": "[4]; human, in vivo", "result": "not observed"}, {"measurement": "grade 4 non-hematological toxicities", "setting": "[4]; human, in vivo", "result": "No grade 4 non-hematological toxicities were observed"}, {"measurement": "subjects experiencing dose limiting toxicity (DLT)", "setting": "[4]; human, in vivo", "result": "two of six"}, {"measurement": "subjects with first-dose effect (grade 1 lightheadedness and hypotension)", "setting": "[4]; human, in vivo", "result": 36, "unit": "%"}, {"measurement": "time to resolution of first-dose effect", "setting": "[4]; human, in vivo", "result": "3 to 4", "unit": "h"}, {"measurement": "tolerability", "setting": "[4]; human, in vivo", "result": "well tolerated"}, {"measurement": "treatment-emergent grade 3 anemia", "setting": "[4]; human, in vivo", "result": 3, "unit": "%"}, {"measurement": "maximum tolerated dose (MTD)", "setting": "[4]; oral once daily", "result": 300, "unit": "mg/day"}]}, {"smiles": "Cc1cnc(Nc2ccc(OCCN3CCCC3)cc2)nc1Nc1cccc(S(=O)(=O)NC(C)(C)C)c1", "note": "[TG101348]", "values": [{"measurement": "maximum tolerated dose (MTD)", "setting": "[5]", "result": 680, "unit": "mg/day"}]}]}
